Reference: patent publication US8835124B2, “Method for treating cancer with agents that bind phosphorylated CDC27” (The Nemours Foundation, priority 2011, dated 2014)

Assays:
[1] = biological target: T1, Cdc27 (Homo sapiens, UniProt P30260); assay: Cdc27 immunoblot, molecular weight shift (crosslinking) in treated DAOY cells; assay type: cell-based
T1 construct: endogenous in cells; host or cells: DAOY medulloblastoma cells
Procedure: Cell lysates were prepared in a buffer containing 20 mM Iris (pH 7.5), 150 mM NaCl, 1 mM EDTA, 1 mM EGTA, 0.1% Triton X-100, 2.5 mM sodium pyrophosphate, 1 mM β-glycerol phosphate, 1 mM sodium vanadate, 1 mM phenylmethylsulfonyl fluoride and 5 μg/ml of antipapain, leupeptin and pepstatin (protease inhibitor cocktail). Protein concentrations were determined by the Dc protein assay (Bio-Rad, Hercules, Calif.). Equal amounts of protein were resolved by SDS-PAGE and transferred to nitrocellulose. The membranes were blocked in 5% non-fat milk in Tris-buffered saline with 0.1% Tween-20 (TBST). Primary antibodies diluted in 5% bovine serum albumin/TBST were incubated overnight at 4° C. and HRP-conjugated secondary antibodies in 5% non-fat milk/TBST for 2 hours at room temperature. Protein bands were visualized by Enhanced Chemiluminescence Plus (GE Healthcare, Piscataway, N.J.).
The cell lysates were separated by SDS-PAGE and immunoblotted for Cdc27. […] Data represent mean±SEM of three independent experiments.

[2] = system: acetylated tubulin; assay: Acetylated tubulin accumulation in cell lines; assay type: cell-based; conditions: cells with low levels of phosphorylated Cdc27; 20 μM curcumin for 0, 4, 8 and 24 hours
Procedure: Accumulation of acetylated tubulin was assayed. […] Thus, loss of Cdc27 function or p55Cdc20 association with Cdc27 may be linked to increased tubulin acetylation in curcumin-treated cells.

[3] = system: Cdc27, cyclin B1, securin, cyclin D1, APC2, p55Cdc20; assay: Immunoblotting of DAOY cells released from mitotic block; assay type: cell-based, human
Procedure: (§1) Cell lysates were prepared in a buffer containing 20 mM Tris (pH 7.5), 150 mM NaCl, 1 mM EDTA, 1 mM EGTA, 0.1% Triton X-100, 2.5 mM sodium pyrophosphate, 1 mM β-glycerol phosphate, 1 mM sodium vanadate, 1 mM phenylmethylsulfonyl fluoride and 5 μg/ml of antipapain, leupeptin and pepstatin (protease inhibitor cocktail). Protein concentrations were determined by the Dc protein assay (Bio-Rad, Hercules, Calif.). Equal amounts of protein were resolved by SDS-PAGE and transferred to nitrocellulose. The membranes were blocked in 5% non-fat milk in Tris-buffered saline with 0.1% […] (TBST). Primary antibodies diluted in 5% bovine serum albumin/TBST were incubated overnight at 4° C. and HRP-conjugated secondary antibodies in 5% non-fat milk/TBST for 2 hours at room temperature. Protein bands were visualized by Enhanced Chemiluminescence Plus (GE Healthcare, Piscataway, N.J.).

[4] = biological target: T2, APC/C (Homo sapiens, UniProt P30260); assay: In vitro APC assay (ubiquitin ligase activity on cyclin B); assay type: biochemical; conditions: DAOY released from G2/M block with 20 μM or 40 μM curcumin; two hours vs one hour of release
T2 construct: Cell pellets of control and curcumin-treated DAOY cells were snap frozen in liquid nitrogen; endogenous in cells; host or cells: DAOY cell lysate, 30 μg total protein
Procedure: In vitro APC assays were performed as described (Rajasekaran et al., Molecular Cancer Therapeutics 7(7); 2142-2151 (2008) using an in vitro transcribed and translated N-terminal fragment of cyclin B1 (cyclin B1-N1-102) as substrate, ^35S-methionine labeled cyclin B1-N1-102 was obtained using the TNT quick-coupled Transcription/Translation system (Promega, Madison, Wis.). Cell pellets of control and curcumin-treated DAOY cells were snap frozen in liquid nitrogen. The cell pellets were resuspended in an ice-cold hypotonic buffer (20 mM Hepes pH 7.6, 20 mM NaF, 1.5 mM MgCl2, 1 mM DTT, 5 mM KCl, 20 mM β-glycerophosphate, 250 μM NaVO3, 1 mM PMSF, and EDTA-free protease inhibitors) and incubated for 30 minutes on ice. The lysates were briefly homogenized and cleared by a 1 hour centrifugation at 13,000 rpm in a micro centrifuge. For the assay, 30 μg of total protein were added to reaction buffer containing 20 mM Tris pH 7.5, 20 mM NaCl, 5 mM MgCl2, 5 mM ATP-γ-S, 20 μg/ml MG-132, 0.5 μg UbcH10, 20 μM ubiquitin, 1 μm ubiquitin aldehyde, protease inhibitor, and 2 μl of in vitro translated ^35S-cyclin B1-N1-102 and incubated at 37° C. for 60 minutes. The reactions were stopped by adding sample buffer and proteins were separated by SDS-PAGE on a 4-15% gradient gel. To visualize the bands, the gel was incubated and enhanced with salicylate, dried, and then subjected to autoradiography. […]

[5] = biological target: T3, cystic fibrosis transmembrane conductance regulator (CFTR) (Homo sapiens, UniProt P13569); conditions: in microsomes and in intact cells; cited from earlier work
T3 construct: host or cells: microsomes and intact cells (not further described)
T3 sequence (P13569 whole entry, species assumed): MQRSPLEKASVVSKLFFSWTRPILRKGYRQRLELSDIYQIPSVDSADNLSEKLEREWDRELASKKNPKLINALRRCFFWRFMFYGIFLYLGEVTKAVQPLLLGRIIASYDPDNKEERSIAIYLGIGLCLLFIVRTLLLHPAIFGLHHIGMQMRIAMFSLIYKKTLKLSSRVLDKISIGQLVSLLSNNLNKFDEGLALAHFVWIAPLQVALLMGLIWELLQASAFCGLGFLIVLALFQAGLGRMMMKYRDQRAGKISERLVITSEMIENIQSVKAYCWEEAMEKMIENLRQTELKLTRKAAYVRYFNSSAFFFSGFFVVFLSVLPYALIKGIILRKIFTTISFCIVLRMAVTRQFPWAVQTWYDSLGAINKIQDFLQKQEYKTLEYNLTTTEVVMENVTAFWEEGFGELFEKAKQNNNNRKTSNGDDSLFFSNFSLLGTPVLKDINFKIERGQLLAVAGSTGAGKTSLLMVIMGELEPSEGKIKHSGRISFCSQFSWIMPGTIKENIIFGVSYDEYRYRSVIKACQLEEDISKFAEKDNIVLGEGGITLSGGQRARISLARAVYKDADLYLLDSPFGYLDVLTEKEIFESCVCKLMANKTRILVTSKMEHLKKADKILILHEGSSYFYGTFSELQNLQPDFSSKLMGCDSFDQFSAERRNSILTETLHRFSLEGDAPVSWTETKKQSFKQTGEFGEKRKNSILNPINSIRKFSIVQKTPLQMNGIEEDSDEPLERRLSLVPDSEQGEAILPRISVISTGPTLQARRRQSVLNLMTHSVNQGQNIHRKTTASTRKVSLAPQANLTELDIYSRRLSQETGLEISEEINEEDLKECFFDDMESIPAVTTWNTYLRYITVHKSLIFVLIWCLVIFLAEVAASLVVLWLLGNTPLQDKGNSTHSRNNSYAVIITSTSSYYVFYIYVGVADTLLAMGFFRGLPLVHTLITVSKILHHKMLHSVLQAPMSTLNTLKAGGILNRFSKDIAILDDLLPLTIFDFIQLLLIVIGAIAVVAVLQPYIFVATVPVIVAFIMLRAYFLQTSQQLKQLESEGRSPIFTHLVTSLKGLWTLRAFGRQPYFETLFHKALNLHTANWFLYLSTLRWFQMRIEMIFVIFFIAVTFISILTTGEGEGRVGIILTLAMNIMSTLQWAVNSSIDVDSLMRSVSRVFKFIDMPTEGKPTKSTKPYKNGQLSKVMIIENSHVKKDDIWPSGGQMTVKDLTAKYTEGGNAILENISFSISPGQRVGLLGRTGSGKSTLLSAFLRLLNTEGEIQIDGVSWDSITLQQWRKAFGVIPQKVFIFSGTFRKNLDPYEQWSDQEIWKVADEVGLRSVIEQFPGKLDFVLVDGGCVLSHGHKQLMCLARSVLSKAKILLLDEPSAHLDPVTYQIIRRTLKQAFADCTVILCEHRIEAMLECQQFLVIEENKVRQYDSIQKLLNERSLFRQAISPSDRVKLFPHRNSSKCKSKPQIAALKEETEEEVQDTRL

[6] = biological target: T4, Cdc27 (Mus musculus, UniProt A2A6Q5); assay: Cdc27 immunoblot of medulloblastoma samples from treated Smo/Smo mice; assay type: in vivo; conditions: curcumin-treated vs corn oil control mice
T4 construct: from tissue; host or cells: medulloblastoma tumours of Smo/Smo mice
T4 sequence (A2A6Q5 whole entry): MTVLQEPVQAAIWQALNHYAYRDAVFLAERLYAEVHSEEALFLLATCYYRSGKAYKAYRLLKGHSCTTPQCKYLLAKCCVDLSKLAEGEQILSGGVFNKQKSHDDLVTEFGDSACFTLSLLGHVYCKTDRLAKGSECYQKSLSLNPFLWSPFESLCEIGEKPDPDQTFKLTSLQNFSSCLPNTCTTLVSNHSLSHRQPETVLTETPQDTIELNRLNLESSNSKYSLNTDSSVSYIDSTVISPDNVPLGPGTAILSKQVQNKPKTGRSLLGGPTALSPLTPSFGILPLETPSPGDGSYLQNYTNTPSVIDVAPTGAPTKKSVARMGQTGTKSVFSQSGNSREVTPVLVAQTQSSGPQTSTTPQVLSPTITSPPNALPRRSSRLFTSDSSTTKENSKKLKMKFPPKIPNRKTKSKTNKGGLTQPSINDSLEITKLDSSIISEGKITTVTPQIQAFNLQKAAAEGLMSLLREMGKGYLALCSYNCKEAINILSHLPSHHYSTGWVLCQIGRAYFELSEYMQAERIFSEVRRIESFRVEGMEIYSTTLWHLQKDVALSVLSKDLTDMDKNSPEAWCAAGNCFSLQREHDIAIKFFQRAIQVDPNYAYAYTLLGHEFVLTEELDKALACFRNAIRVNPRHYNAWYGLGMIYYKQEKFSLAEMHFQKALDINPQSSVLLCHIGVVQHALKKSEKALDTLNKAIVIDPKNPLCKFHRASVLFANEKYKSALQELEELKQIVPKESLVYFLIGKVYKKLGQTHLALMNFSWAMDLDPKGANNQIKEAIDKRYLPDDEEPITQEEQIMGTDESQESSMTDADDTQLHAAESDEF
Procedure: Tumors of control and curcumin-treated mice were harvested exactly as described (Lee et al., 2011, BMC Cancer 11:144). Animal experiments were performed according to the NIH Guide for the Care and Use of Experimental Animals and approved by our Institutional Animal Care and Use Committee.
Cdc27 levels in the Smo/Smo mouse tumors were determined by immunoblot of Cdc27. Tubulin is shown for equal loading. The Cdc27 levels were reduced (FIG. 4) when compared with control mice.

[7] = system: APC2, p55Cdc20, cyclins A and E, APC7, APC8; assay: Immunoblotting of APC/C subunits and other cell cycle related proteins in DAOY cells; assay type: cell-based, human; conditions: control vs curcumin-treated DAOY cells, immunoblot
Procedure: as §1
Cell lysates were prepared in a buffer containing 20 mM Iris (pH 7.5), 150 mM NaCl, 1 mM EDTA, 1 mM EGTA, 0.1% Triton X-100, 2.5 mM sodium pyrophosphate, 1 mM β-glycerol phosphate, 1 mM sodium vanadate, 1 mM phenylmethylsulfonyl fluoride and 5 μg/ml of antipapain, leupeptin and pepstatin (protease inhibitor cocktail). Protein concentrations were determined by the Dc protein assay (Bio-Rad, Hercules, Calif.). Equal amounts of protein were resolved by SDS-PAGE and transferred to nitrocellulose. […]

[8] = system: medulloblastoma cells; conditions: cited from earlier work
[9] = system: Cdc27; assay: Cdc27 immunoblot of cell lines after curcumin treatment; assay type: cell-based; conditions: 20 μM curcumin for 0, 4, 8 and 24 hours; DAOY, NT2, D283 Med, D341 Med, HCT116, HT1376, RT4, MDCK
Procedure: as §1
The cell lines DAOY, NT2, D283 Med, D341 Med (brain); HCT116 (colon); HT1376, RT4 (bladder); MDCK (kidney) were screened for Cdc27 phosphorylation by immunoblot of Cdc27. […] Actin immunoblot is shown as loading control.
Arrows indicate crosslinked Cdc27, while arrowheads show phosphorylated Cdc27. Equal amounts of protein were used as shown by actin immunoblot.

T1 sequence (P30260 1-830 isoform P30260-2): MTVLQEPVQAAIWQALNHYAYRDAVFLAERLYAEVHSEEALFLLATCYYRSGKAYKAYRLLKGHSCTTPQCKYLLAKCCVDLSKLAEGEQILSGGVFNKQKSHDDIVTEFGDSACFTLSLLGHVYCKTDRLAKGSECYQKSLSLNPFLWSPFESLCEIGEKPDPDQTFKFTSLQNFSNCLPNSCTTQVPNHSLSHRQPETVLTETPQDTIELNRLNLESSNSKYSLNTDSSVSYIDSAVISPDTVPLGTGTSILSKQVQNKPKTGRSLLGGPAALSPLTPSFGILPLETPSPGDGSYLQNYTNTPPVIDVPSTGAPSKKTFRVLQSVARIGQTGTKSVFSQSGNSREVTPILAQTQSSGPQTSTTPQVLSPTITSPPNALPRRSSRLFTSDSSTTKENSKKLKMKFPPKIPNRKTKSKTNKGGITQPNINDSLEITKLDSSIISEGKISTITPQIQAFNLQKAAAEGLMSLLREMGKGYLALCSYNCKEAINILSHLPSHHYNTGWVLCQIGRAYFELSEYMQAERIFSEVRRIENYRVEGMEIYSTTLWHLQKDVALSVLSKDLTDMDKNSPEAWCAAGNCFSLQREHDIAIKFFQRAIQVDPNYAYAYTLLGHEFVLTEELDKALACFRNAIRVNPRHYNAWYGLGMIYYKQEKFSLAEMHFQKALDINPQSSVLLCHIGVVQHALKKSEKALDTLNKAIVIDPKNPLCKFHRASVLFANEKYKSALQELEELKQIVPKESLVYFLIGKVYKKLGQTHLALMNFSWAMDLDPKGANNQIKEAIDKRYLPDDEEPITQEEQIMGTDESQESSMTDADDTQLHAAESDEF

## COc1cc(/C=C/C(=O)CC(=O)/C=C/c2ccc(O)c(OC)c2)ccc1O [Curcumin, (E,E)-1,7-bis(4-hydroxy-3-methoxyphenyl)-1,6-heptadiene-3,5-dion]
[1]; DAOY, 0, 3, 6, 9 or 24 hours
  induction of high molecular weight bands of Cdc27 (crosslinking): induces the formation of Cdc27 dimers
[1]; curcumin-treated DAOY cells, immunoblot
  high molecular weight (MW) band of Cdc27: approximately double the MW of Cdc27
[2]
  curcumin-induced tubulin acetylation: reduced
[3]; 20 and 40 μM curcumin vs DMSO
  dephosphorylation of Cdc27 over time after release of the mitotic block: not observed
[3]; 20 and 40 μM curcumin vs control
  decreases in the cyclin B1 and securin levels after release of the mitotic block: not found
[3]; control vs curcumin-treated cells
  levels of APC2, p55Cdc20 or cyclin D1: no significant differences
[4]
  APC activity: reduced
[5]
  crosslinking of CFTR polypeptides: can crosslink CFTR polypeptides into SDS-resistant oligomers
[6]
  Cdc27 levels in Smo/Smo mouse tumors: reduced
[7]
  expression of cyclin A and E: No noticeable changes
  levels of APC2 and p55Cdc20: comparable in control and curcumin-treated cells
[8]
  cell cycle arrest and apoptosis: induces G2/M arrest and apoptosis
[9]
  crosslinking of Cdc27 in cell lines: Only in cell lines with the phosphorylated form of Cdc27 was curcumin able to crosslink Cdc27
